This note sets out measurements from PubChem BioAssay AID651552 (The Scripps Research Institute Molecular Screening Center, 2012).

In the experiment the target is beta-lactamase TEM-1 reporter (bacterial) (UniProt Q932Y6). In words: beta-lactamase reporter inhibitor potency, dose response, artefact control for NOD2-RIPK2 interaction inhibitor project, BLA reporter cells, FRET fluorescence (AID 651552). The following applies: HEK293 BLA reporter cells.

Each structure is given as a SMILES string. Active and inactive are the calls of the source. How the calls were made is not given here.

Usually IC50 stands for the concentration that inhibits the measured activity by half. Regarding `C=CCn1c(O)c(C2=c3ccccc3=NC2=O)c2ccccc21`, the IC50 was > 49.7 µM (inactive).
The same measure for `COc1ccc(C[C@H]2NC[C@H](O)[C@H]2OC(C)=O)cc1`: > 49.8 µM (inactive).
